The values that follow come from publication PMC4038709 (Bioorganic & medicinal chemistry, 2014).

Assay [1] concerns the target T1, SET7 (Homo sapiens, UniProt Q8WTS6).
T1 sequence (Q8WTS6 52-366): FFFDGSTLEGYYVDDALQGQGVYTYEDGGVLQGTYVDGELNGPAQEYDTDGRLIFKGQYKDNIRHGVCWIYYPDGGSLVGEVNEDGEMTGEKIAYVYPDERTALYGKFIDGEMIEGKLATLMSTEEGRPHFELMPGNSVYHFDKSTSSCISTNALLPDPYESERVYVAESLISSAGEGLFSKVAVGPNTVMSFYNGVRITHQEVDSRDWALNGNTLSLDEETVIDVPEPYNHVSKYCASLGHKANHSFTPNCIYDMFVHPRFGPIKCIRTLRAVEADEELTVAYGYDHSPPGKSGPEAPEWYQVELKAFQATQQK
Put plainly: SET7 ELISA methylation assay. The assay is classed as biochemical. As to conditions: for relative potency against SET7 (SAR, in words): comparison with parent analog, ELISA 40 µM (Fig. 3); for inhibition at 40 µM: read-out: inhibition of SET7. In general terms: In an ELISA, binding on a coated surface is turned into a signal by an enzyme label.

Assay [2] concerns the target T1, SET7. Put plainly: SET7 scintillation proximity assay. The assay is classed as biochemical. The following applies: SPA, 50 µM and 15 µM inhibitor, comparison with 19 (Fig. 4). (SPA uses beads or plates that emit light when radiolabelled molecules are held near them.)

As for `O=C(O)c1ccc(-c2cccc3c2ccn3-c2cccc(CNc3cccc(C(=O)O)c3)c2)cc1` [Compound 15, 3-(3-(4-(4-carboxyphenyl)-1H-indol-1-yl)benzylamino)benzoic acid], the “relative potency against SET7 (SAR, in words)” value (shortened to “relative potency against SET7”) on SET7 [1] is “greatly suppressed activity”. In the case of `O=C(O)c1cccc(SCc2cccc(-n3ccc4c(-c5ccccc5)cccc43)c2)c1` [Compound 13, 3-(3-(4-phenyl-1H-indol-1-yl)benzylthio)benzoic acid], at SET7 [1], the “relative potency against SET7” value is “even more effective” and the inhibition – broadly, the percentage by which the read-out fell short of the control – at 40 µM lay within 50 to 60%. `O=C(O)c1cccc(NCc2ccc(-n3ccc4c(-c5ccc(C(F)(F)F)cc5)ncnc43)s2)c1` [Compound 26]: the “relative potency against SET7” value on SET7 [2] is “reduced inhibitor potency”. In the case of `O=C(O)c1cccc(CNc2cccc(-n3ccc4c(-c5ccc(C(F)(F)F)cc5)ncnc43)c2)c1` [Compound 25], at SET7 [2], the “relative potency against SET7” value is listed as “reduced inhibitor potency”. On to `O=C(O)c1cccc(NCc2cccc(-n3ccc4c(-c5ccccc5)cccc43)c2)c1` [Compound 14, 3-(3-(4-phenyl-1H-indol-1-yl)benzylamino)benzoic acid], for which the inhibition at 40 µM at SET7 [1] fell in the range of 50 to 60%. Turning to `O=C(O)c1cccc(SCc2cccc(-n3ccc4c(Br)cccc43)c2)c1` [Compound 12, 3-(3-(4-bromo-1H-indol-1-yl)benzylthio)benzoic acid], the “relative potency against SET7” value at SET7 [1] is reported as “increased potency”.

Regarding `O=C(O)c1cccc(SCc2cccc(-n3ccc4cc(Br)ccc43)c2)c1` [Compound 11, 3-(3-(5-bromo-1H-indol-1-yl)benzylthio)benzoic acid], the “relative potency against SET7” value on SET7 [1] is “more potent inhibitors of SET7 than 7”.

For `O=C(O)CCCSCc1cccc(-n2ccc3cc(Br)ccc32)c1` [Compound 10, 4-(3-(5-bromo-1H-indol-1-yl)benzylthio)butanoic acid], the “relative potency against SET7” value at SET7 [1] is listed as “more potent inhibitors of SET7 than 7”.
